Assay results: patent publication US20250129103A1, “METHODS FOR TREATMENT OF CANCER” (Frontier Medicines Corporation, priority 2022, published 2025)
In brackets after ≈: the same amount, converted by molar mass.

How the values were obtained:
[1] = biological target: KRAS G12C (GMPPNP-loaded) and cRAF (Ras-binding domain) interaction (Homo sapiens (Human), UniProt P01116, C118S/C51S/C80L/G12C); assay: Inhibition of KRAS G12C and cRAF binding (AlphaScreen); details: KRAS G12C loaded with GMPPNP, cRaf RBD, 2 hours preincubation; read-out: Raf-1 RBD K-Ras IC50
Outline: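 GMPPNP-loaded KRAS G12C in 25 mM Hepes pH 7.4, 150 mM NaCl, 5 mM MgCl2, 0.01% Triton X-100, 10 μM GMPPNP, 2% DMSO, preincubated with compound 2 h at room temperature. cRAF RBD plus AlphaScreen beads then added for 60-90 min; signal read at 570 nm.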

[2] = Determination of logD (1-octanol / phosphate buffer pH 7.4); type: physicochemical; details: 1-octanol/phosphate buffer, pH 7.4, pH 7.4, 1-octanol/phosphate buffer; read-out: Log D, pH 7.4
Experimental: Preparation of phosphate buffer saturated with 1-octanol: 10 mL of 100 mM phosphate buffer (pH 7.4) was added to 100 mL of 1-octanol. The mixture was shaken vigorously and left to stand at room temperature overnight.
Preparation of 1-octanol saturated with phosphate buffer: 10 mL of 1-octanol was added to 100 mL of 100 mM phosphate buffer (pH 7.4). The mixture was shaken vigorously and left to stand at room temperature overnight.
149 μL of phosphate buffer saturated with 1-octanol was added into 1st sample tube. 149 μL of 1-octanol saturated with phosphate buffer was added into the 2nd sample tube. The sample tubes were mixed vigorously and shaken for 1 hour at a speed of 800 rpm at room temperature. The sample tubes were subjected to centrifugation at 4000 rpm for 5 minutes at room temperature. Samples of the supernatant were taken from both tubes, diluted with an appropriate LCMS buffer, and analyzed on an LCMS instrument. LogD was calculated according to the following equation.

[3] = Determination of kinetic solubility (pH 7.4); type: physicochemical; details: phosphate buffer, pH 7.4, aqueous buffer, kinetic from dmso stock, 50 mM phosphate buffer pH 7.4, read-out: Ksol, pH 7.4
Experimental: 490 μL of a 50 mM phosphate buffer (pH 7.4) was added to the sample solution. The mixture was vortexed for at least 2 minutes. The vial was shaken on a Barnstead shaker at 800 rpm at room temperature for 2 hours. The vial was centrifuged at 4000 rpm for 20 minutes. The Mini-UniPrep vial was compressed to prepare a filtrate, which was injected into an HPLC-UV and LC-MS/MS system. Kinetic solubility was calculated by referencing sample peak areas to a standard calibration curve.

Sequence of KRAS G12C (GMPPNP-loaded) and cRAF (Ras-binding domain) interaction (P01116 other isoform, or with tags, fused parts or gaps G12C/C51S/C80L/C118S): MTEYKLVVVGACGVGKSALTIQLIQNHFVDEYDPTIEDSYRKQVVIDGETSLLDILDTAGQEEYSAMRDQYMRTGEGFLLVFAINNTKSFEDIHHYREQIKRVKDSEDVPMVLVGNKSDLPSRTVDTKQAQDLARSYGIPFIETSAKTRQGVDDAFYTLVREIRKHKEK

| IC50 [1] | logD [2] | solubility kinetic at 2 h [3] | SMILES |
| --- | --- | --- | --- |
| > 500 nM | 2.65 | 112 µg/mL (≈ 161 µM) | Cn1cc(/C=C/C(=O)N2CCN(c3nc(OCC45CCCN4CCC5)nc4c3CCN(c3cccc5cccc(Cl)c35)C4)C[C@@H]2CC#N)nn1 [Compound 117] |
| 100 to 500 nM | 3.24 | 4.73 µg/mL (≈ 6.32 µM) | CC1(c2noc(/C=C/C(=O)N3CCN(c4nc(OCC56CCCN5CCC6)nc5c(F)c(-c6cccc7cccc(Cl)c67)ncc45)C[C@@H]3CC#N)n2)CC1 [Compound 118] |
| 100 to 500 nM | 3.21 | 26.5 µg/mL (≈ 36 µM) | CC(C)c1noc(/C=C/C(=O)N2CCN(c3nc(OCC45CCCN4CCC5)nc4c(F)c(-c5cccc6cccc(Cl)c56)ncc34)C[C@@H]2CC#N)n1 [Compound 120] |
| 10 to 100 nM | 3.43 | 0.44 µg/mL (≈ 0.571 µM) | CC(C)c1noc(/C=C/C(=O)N2CCN(c3nc(OC[C@@]45CCCN4C[C@H](F)C5)nc4c(F)c(-c5nc(N)cc6cccc(Cl)c56)ncc34)C[C@@H]2CC#N)n1 [Compound 122] |
| 10 to 100 nM | 3.42 | 94.6 µg/mL (≈ 123 µM) | Cc1cc(N)nc(-c2ncc3c(N4CCN(C(=O)/C=C/c5nc(C(C)C)no5)[C@@H](CC#N)C4)nc(OC[C@@]45CCCN4C[C@H](F)C5)nc3c2F)c1C(F)(F)F [Compound 135] |
| < 10 nM | 2.55 | 106 µg/mL (≈ 140 µM) | Cc1nsc(/C=C/C(=O)N2CCN(c3nc(OC[C@@]45CCCN4C[C@H](F)C5)nc4c(F)c(-c5nc(N)cc(C)c5C(F)(F)F)ncc34)C[C@@H]2CC#N)n1 [Compound 142] |
| < 10 nM | 2.11 | 136 µg/mL (≈ 181 µM) | Cc1nccc(/C=C/C(=O)N2CCN(c3nc(OC[C@@]45CCCN4C[C@H](F)C5)nc4c(F)c(-c5nc(N)cc(C)c5C(F)(F)F)ncc34)C[C@@H]2CC#N)n1 [Compound 145] |
| < 10 nM | 2.14 | 78.1 µg/mL (≈ 106 µM) | Cc1nccc(/C=C/C(=O)N2CCN(c3nc(OC[C@@]45CCCN4C[C@H](F)C5)nc4c(F)c(-c5nc(N)cc6cccc(F)c56)ncc34)C[C@@H]2CC#N)n1 [Compound 146] |
| > 500 nM | 2.62 | 126 µg/mL (≈ 175 µM) | CC(C)c1noc(/C=C/C(=O)N2CCN(c3nc(OC[C@@]45CCCN4C[C@H](F)C5)nc4c(F)c(-c5ccccc5C(F)F)ncc34)C[C@@H]2CC#N)n1 [Compound 152] |
| 10 to 100 nM | 4.05 | 0.55 µg/mL (≈ 0.729 µM) | Cc1ncc(F)c(/C=C/C(=O)N2CCN(c3nc(OC[C@@]45CCCN4C[C@H](F)C5)nc4c(F)c(-c5cccc6cccc(Cl)c56)ncc34)C[C@@H]2CC#N)n1 [Compound 157] |
| 100 to 500 nM | 4.52 | 0.01 µg/mL (≈ 0.0128 µM) | N#CC[C@H]1CN(c2nc(OC[C@@]34CCCN3C[C@H](F)C4)nc3c(F)c(-c4cccc5cccc(Cl)c45)ncc23)CCN1C(=O)/C=C/c1nc(C2CC2)ncc1F [Compound 158] |
| < 10 nM | 3.33 | 86.8 µg/mL (≈ 112 µM) | N#CC[C@H]1CN(c2nc(OC[C@@]34CCCN3C[C@H](F)C4)nc3c(F)c(-c4cccc5ccc(F)c(Cl)c45)ncc23)CCN1C(=O)/C=C/CN1CCOC2CC21 (stereo partly drawn) [Compound 160] |
| 10 to 100 nM | 1.97 | 133 µg/mL (≈ 183 µM) | CN1CCN(C/C=C/C(=O)N2CCN(c3nc(OCC45CCCN4CCC5)nc4c3CCN(c3cccc5cccc(Cl)c35)C4)C[C@@H]2CC#N)CC1 [Compound 162] |
| < 10 nM | 2.44 | 130 µg/mL (≈ 180 µM) | N#CC[C@H]1CN(c2nc(OCC34CCCN3CCC4)nc3c2CCN(c2cccc4cccc(Cl)c24)C3)CCN1C(=O)/C=C/CN1CCCOCC1 [Compound 163] |
| 10 to 100 nM | 2.02 | 108 µg/mL (≈ 142 µM) | N#CC[C@H]1CN(c2nc(OCC34CCCN3CCC4)nc3c2CCN(c2cccc4cccc(Cl)c24)C3)CCN1C(=O)/C=C/CN1CCS(=O)(=O)CC1 [Compound 169] |
| < 10 nM | 2.1 | 119 µg/mL (≈ 158 µM) | N#CC[C@H]1CN(c2nc(OCC34CCCN3CCC4)nc3c2CCN(c2cccc4cccc(Cl)c24)C3)CCN1C(=O)/C=C/CN1CC2COCC(C1)O2 [Compound 172] |
| < 10 nM | 1.44 | 119 µg/mL (≈ 158 µM) | N#CC[C@H]1CN(c2nc(OCC34CCCN3CCC4)nc3c(F)c(-c4cccc5ccc(F)c(Cl)c45)ncc23)CCN1C(=O)/C=C/CN1C[C@@H]2C[C@H]1CO2 [Compound 182] |
| < 10 nM | 1.48 | 110 µg/mL (≈ 146 µM) | N#CC[C@H]1CN(c2nc(OCC34CCCN3CCC4)nc3c(F)c(-c4cccc5ccc(F)c(Cl)c45)ncc23)CCN1C(=O)/C=C/CN1C[C@H]2C[C@@H]1CO2 [Compound 183] |
| < 10 nM | 3.13 | 97.3 µg/mL (≈ 131 µM) | N#CC[C@H]1CN(c2nc(OCC34CCCN3CCC4)nc3c2CCN(c2cccc4cccc(Cl)c24)C3)CCN1C(=O)/C=C/CN1CC2C(C1)C2(F)F (stereo partly drawn) [Compound 193] |
| 10 to 100 nM | 2.44 | 149 µg/mL (≈ 202 µM) | N#CC[C@H]1CN(c2nc(OCC34CCCN3CCC4)nc3c2CCN(c2cccc4cccc(Cl)c24)C3)CCN1C(=O)/C=C/CN1C[C@H]2COC[C@H]2C1 [Compound 195] |
| 10 to 100 nM | 2.76 | 119 µg/mL (≈ 171 µM) | N#CC[C@H]1CN(c2nc(OCC34CCCN3CCC4)nc3c2CCN(c2cccc4cccc(Cl)c24)C3)CCN1C(=O)/C=C/CN1CC(F)C1 [Compound 201] |
| 10 to 100 nM | 4.59 | 0.01 µg/mL (≈ 0.0132 µM) | Cc1nsc(/C=C/C(=O)N2CCN(c3nc(OC[C@@]45CCCN4C[C@H](F)C5)nc4c3C[C@H](C)[C@@H](c3nc(N)cc(C)c3C(F)(F)F)C4)C[C@@H]2CC#N)n1 [Compound 203] |
| 100 to 500 nM | 2.4 | 29.9 µg/mL (≈ 37.8 µM) | N#CC[C@H]1CN(c2nc(OC[C@@]34CCCN3C[C@H](F)C4)nc3c(F)c(-c4cccc5cccc(Cl)c45)ncc23)CCN1C(=O)/C=C/CN1CCS(=O)(=O)CC1 [Compound 207] |
| < 10 nM | 1.87 | 135 µg/mL (≈ 178 µM) | N#CC[C@H]1CN(c2nc(OC[C@@]34CCCN3C[C@H](F)C4)nc3c(F)c(-c4cccc5ccc(F)c(F)c45)ncc23)CCN1C(=O)/C=C/CN1C[C@@H]2C[C@H]1CO2 [Compound 225] |
| < 10 nM | 3.68 | 34.8 µg/mL (≈ 46.9 µM) | N#CC[C@H]1CN(c2nc(OC[C@@]34CCCN3C[C@H](F)C4)nc3c(F)c(-c4cccc5cccc(F)c45)ncc23)CCN1C(=O)/C=C/CN1CCSCC1 [Compound 232] |
| 10 to 100 nM | 2.91 | 102 µg/mL (≈ 141 µM) | N#CC[C@H]1CN(c2nc(OC[C@@]34CCCN3C[C@H](F)C4)nc3c(F)c(-c4cccc5cccc(F)c45)ncc23)CCN1C(=O)/C=C/CN1CCOCC1 [Compound 233] |
| 10 to 100 nM | 3.75 | 72.5 µg/mL (≈ 96.1 µM) | C[C@H]1CN(C/C=C/C(=O)N2CCN(c3nc(OC[C@@]45CCCN4C[C@H](F)C5)nc4c(F)c(-c5cccc6cccc(F)c56)ncc34)C[C@@H]2CC#N)C[C@H](C)O1 [Compound 235] |

| SMILES | IC50 [1] | logD [2] | solubility kinetic at 2 h [3] |
| --- | --- | --- | --- |
| N#CC[C@H]1CN(c2nc(OCC34CCCN3CCC4)nc3c2CCN(c2cccc4cccc(Cl)c24)C3)CCN1C(=O)/C=C/CN1[C@@H]2CC[C@H]1COC2 [Compound 168] | < 10 nM | 2.59 | 104 µg/mL (≈ 142 µM) |
